Measurements reported in patent publication US12622934B2, “Pharmaceutical composition for preventing or treating atopic disease containing Faecalibacterium prausnitzii strain” (ENTEROBIOME INC., priority 2020, dated 2026).
Values after ≈ are worked out from the molar mass of the structure shown.

Key:
[1] = system: Faecalibacterium prausnitzii A2-165; assay: MIC by CLSI broth microdilution, type strain; type: cell-based; design: MIC: unit not given beside the values; settings: for MIC breakpoint class: test strain A2-165, breakpoints per antibiotic in c1-c3
[2] = system: Faecalibacterium prausnitzii EB-FPDK11; assay: MIC by CLSI broth microdilution, isolated strain; type: cell-based; design: MIC: unit not given beside the values; settings: for resistance or sensitivity of the EB-FPDK11 strain to the antibiotic: Table 5; for MIC breakpoint class: test strain EB-FPDK11, breakpoints per antibiotic in c1-c3
[3] = system: Bacteroides thetiotaomicron ATCC 29741; assay: MIC by CLSI broth microdilution, QC strain; type: cell-based; settings: ATCC29741
Th2/Th1 cytokines = assay: Ratio of Th2/Th1 cytokines in serum; type: in vivo, mice
Experimental: (§1) The Faecalibacterium prausnitzii A2-165 strain and Faecalibacterium prausnitzii EB-FPDK11 live bacteria used in this experiment were prepared at a concentration of 1×10^8 CFU/150 μl PBS (25% glycerol, 0.05% cysteine/PBS).
To observe atopic dermatitis lesions, 6-week-old NC/Nga mice (weighed about 21 to 25 g, SLC, Inc., Japan) were purchased from Daehan Biolink Co., Ltd. (Chungbuk, Korea). Animal tests were carried out in accordance with the Animal use and Care Protocol of the Institutional Animal Care and Use Committee (IACUC). The animals were acclimated for one week, and then raised for 9 weeks at a constant temperature of 22° C. and a relative humidity of 50 to 60% with a 12-hr light/12-hr dark cycle. […]
(§2) At the end of the experiment, the mice were anesthetized with CO2, and blood was collected by cardiac puncture. […] The concentrations of IL-4, IL-12, IFN-γ and IL-6 cytokines were measured using an ELISA kit (Invitrogen, CA, USA), and the results of the measurement are shown in FIGS. 16 and 17.
From an immunological point of view, allergenic atopic dermatitis is a disease caused by an excessive imbalance between Th1 and Th2 immune responses. Thus, the cytokine concentrations measured as described above were expressed as the ratio of Th2/Th1 cytokines, and the results are shown in FIGS. 18 and 19.

NC/Nga mice [4] = assay: Ear edema caused by atopic dermatitis (thickness gauge); type: in vivo; settings: at 6 weeks; normal group 0.55 mm, DNCB group 1.50 mm
Experimental: as §1
(§3) To observe atopic dermatitis lesions, 6-week-old NC/Nga mice (weighed about 21 to 25 g, SLC, Inc., Japan) were purchased from Daehan Biolink Co., Ltd. (Chungbuk, Korea). Animal tests were carried out in accordance with the Animal use and Care Protocol of the Institutional Animal Care and Use Committee (IACUC). The animals were acclimated for one week, and then raised for 9 weeks at a constant temperature of 22° C. and a relative humidity of 50 to 60% with a 12-hr light/12-hr dark cycle.
(§4) The backs of 6-week-old NC/Nga mice were shaved clean, and then left to stand for 24 hours so that fine wounds of the skin were healed. 1% 2,4-dinitrochlorobenzene (DNCB) solution (Sigma-Aldrich Korea) was applied to the back of each mouse twice a week for 3 weeks to induce an immune response, and then 0.5% DNCB solution was applied twice a week to induce contact dermatitis. […]
After completion of the experiment, the mice were sacrificed by anesthetizing with CO2, and then the degree of edema of both ears was measured by the velocity transformation technique using a thickness gauge (Digimatic thickness gauge, 547-301, Mitutoyo, Japan).

IL-6 = assay: Serum cytokine concentration (ELISA), IL-6; type: in vivo, mice; settings: mouse blood, compared to atopic dermatitis-induced group (DNCB)
Experimental: as §1, §3
(§5) The backs of 6-week-old NC/Nga mice were shaved clean, and then left to stand for 24 hours so that fine wounds of the skin were healed. […]
After induction of atopic dermatitis, the concentrations of cytokines related to Th1 and Th2 were measured to examine the immune response resulting from administration of the Faecalibacterium prausnitzii EB-FPDK11 strain of the present invention. […]
as §2

IgE = assay: Serum IgE concentration (ELISA); type: in vivo, mice; settings: end of experiment, compared to DNCB group (1545.08 ng/ml)
Experimental: as §1, §3, §4
At the end of the experiment, each of the mice was anesthetized with CO2 and blood was collected by cardiac puncture. The collected blood was centrifuged at 10,000 rpm for 5 minutes to separate the serum, and the serum IgE concentration was measured. […]

NC/Nga mice [5] = assay: Scratching frequency; type: in vivo; settings: scratching for 10 minutes, day before end, compared to atopic dermatitis-induced group
Experimental: as §1, §3, §4
The day before the end of the experiment, the frequency of scratching the affected area due to itching was measured. For measurement of the frequency of scratching, each mouse was acclimated for 10 minutes, and then the frequency of scratching for 10 minutes was measured using a counter.

NC/Nga mice [6] = assay: Spleen weight; type: in vivo; settings: after 6 weeks oral treatment, compared to atopic dermatitis-induced group (DNCB)
Experimental: as §1, §3, §5
Thus, the weight of the spleen was measured to observe the effect of the composition for preventing atopic dermatitis on the immune organs of NC/Nga mice with atopic dermatitis induced by DNCB. […] The collected spleen tissue was washed with physiological saline and then dried, and the weights thereof were measured using a microbalance and the sizes thereof were visually observed.

Compound | MIC breakpoint class [1] | resistance or sensitivity of the EB-FPDK11 strain to the antibiotic [2] | MIC breakpoint class [2] | other results
O=C(N[C@H](CO)[C@H](O)c1ccc([N+](=O)[O-])cc1)C(Cl)Cl [CHL, chloramphenicol] | (R) | sensitivity | (S) | –
CCC[C@@H]1C[C@@H](C(=O)N[C@@H]([C@H]2O[C@H](SC)[C@H](O)[C@@H](O)[C@H]2O)[C@H](C)Cl)N(C)C1 [CLI, clindamycin] | (S) | – | (S) | –
CO/N=C(\C(=O)N[C@@H]1C(=O)N2C(C(=O)O)=CCS[C@H]12)c1csc(N)n1 [CTZ, ceftizoxime] | (I) | resistance | (R) | –
C[C@@H](O)[C@H]1C(=O)N2C(C(=O)O)=C(S[C@@H]3CN[C@H](C(=O)N(C)C)C3)[C@H](C)[C@H]12 [MEM, meropenem] | (R) | resistance | (R) | MIC [3]: 0.5 µg/mL (≈ 1.3 µM)
Cc1ncc([N+](=O)[O-])n1CCO [MTZ, metronidazole] | (S) | sensitivity | (S) | –
COc1c(N2C[C@@H]3CCCN[C@@H]3C2)c(F)cc2c(=O)c(C(=O)O)cn(C3CC3)c12 [MXF, moxifloxacin] | (R) | – | (R) | –
C[C@@H]1C[C@H]2[C@@H]3CCC4=CC(=O)C=C[C@]4(C)[C@@]3(F)[C@@H](O)C[C@]2(C)[C@@]1(O)C(=O)CO [dexamethasone] | – | – | – | decrease in IL-4/IL-12 ratio (Th2/Th1 cytokines; compared to atopic dermatitis-induced group): 23.7%; decrease in ratio of IL-6/IL-12 (Th2/Th1 cytokines; compared to atopic dermatitis-induced group (DNCB)): 35.8%; ear edema (NC/Nga mice [4]): 1.00 mm; decrease in IL-6 concentration (IL-6): 35.5%; decrease in serum IgE concentration (IgE): 40.70%; decrease in frequency of scratching (NC/Nga mice [5]): about 59.4%; decrease in spleen weight (NC/Nga mice [6]): 23.26%
Piperacillin-tazobactam [PTZ] | (R) | resistance | (R) | MIC ([1]; test strain A2-165, broth microdilution): ≤256/4; MIC ([2]; test strain EB-FPDK11, broth microdilution): ≤256/4
